Each block holds one compound with its values, some of them ahead of it.
Experiments:
Format in all cases: cell-based
HeLa-C3 cells [1] = test: Apoptosis-inducing effect: caspase-3 activation, YFP/CFP emission ratio (FRET biosensor) in HeLa-C3 cells; details: for Apoptotic effect at 25 μM / Apoptotic effect at 50 μM / Apoptotic effect at 100 μM: 72 h
Method: The biological activity of Compounds 1-4 was evaluated for apoptosis-inducing effects using genetically engineered HeLa-C3 cells that can produce a fluorescent biosensor capable of detecting caspase-3 activation. These cells emit a green light under normal growth conditions and change to a blue light when caspase-3 is activated during apoptosis to cleave the sensor protein inside the cells. This color change allows one to use a fluorescent plate reader to directly detect the activation level of caspase-3 in HeLa-C3 cells during the course of the compound treatment in a noninvasive way. Based on our previous test results, the emission ratio of YFP (yellow fluorescent protein)/CFP (cyanfluorescent proteins) is usually between 6 and 8 in normal cells, and this ratio will decrease to a value below 3 if a compound can activate caspase-3 and kill cancer cells. Therefore, any compound that can reduce the YFP/CFP emission ratio to a value below 3 is considered positive in activating apoptosis.
Bioassay: The bioassay method was described in our previous paper with some modifications. All the testing samples were dissolved in DMSO to make stock solutions. The concentration of each stock was at least 1000 times higher than the working concentration. HeLa-C3 cells, which can detect apoptotic cell death involving caspase activation, were cultured in minimum essential medium (MEM) containing 10% fetal bovine serum, 100 U/ml penicillin, […] streptomycin, in a 5% CO2 humidity incubator at 37° C. The sample well for apoptotic activity testing was prepared by seeding a well on a 96-well plate with 7500 HeLa-C3 cells suspended in 100 μl culture medium. After 12-16 h incubation, the old medium was removed and 100 μl freshly prepared culture medium containing the testing sample at a certain working concentration was added to both the sample well and the corresponding background well. Culture medium containing 0.1% DMSO was the negative control while 500 nM paclitaxel was the positive control. After that, the plate was read repeatedly by a Perkin-Elmer Victor reader with excitation wavelength at 440±10 nm and emission wavelength at 486±8 nm for CFP (cyan fluorescent protein) and 535±8 nm for YFP (yellow fluorescent protein) at indicated time points. The data acquisition duration was up to 72 h. The YFP/CFP emission ratio was then calculated. The background fluorescence was measured from the wells containing only medium. After subtracting the background fluorescence from the recorded signal, net YFP and CFP readings were obtained. In this paper, Y/C emission ratio is used to represent the effect of FRET, which is equal to the net YFP reading divided by the net CFP reading from the same well. If YFP/CFP emission ratio was reduced below 3, the testing sample was considered as a good apoptotic inducer at that concentration. All samples were tested in triplicate. The whole experiment was repeated for three times.

HeLa cells = test: MTT assay, HeLa cell growth inhibition; details: for IC50: HeLa cells treated for 72 h, MTT; for HeLa cell growth inhibiting effect: HeLa cells, 72 h, IC50 below or near 10
Method: IC50 of four new compounds was measured using MTT assay. MTT powder was dissolved in PBS at a concentration of 5 mg/mL. For MTT assay, 10 μL of MTT solution was added into each well of a 96-well plate. After 2 h incubation at 37° C., 100 μL 10% SDS solution with 0.01 M HCl was added to dissolve the purple crystals. After 24 h incubation, the optical density (OD) readings at 595 nm were measured using a plate reader. Firstly, 2,500 HeLa cells suspended in 100 μL MEM medium were seeded respectively in a 96-well plate. After 24 h incubation, fresh medium that contained various concentrations of each compound were added into the 96-well plate and changed the old medium. The concentrations applied were ranged from 100 μM to 1.5625 μM, which was achieved by doing two-fold dilutions for 6 times. The OD values of the control group at 0 h and 72 h together with the compound treated groups at 72 h from the MTT assay were measured using a plate reader. IC50 is the concentration of a compound inhibiting 50% of the cell growth.

HeLa-C3 cells [2] = test: Cell morphology changes during compound treatment (FIG. 5)
Method: Various cell morphologies were recorded at the indicated time points. The control cells have normal attached cell morphology through the course of the experiment. Cells have shrinkage and detached morphology when they were treated with either the anticancer drug paclitaxel or other compounds, confirming their ability to kill cancer cells.
In addition to detecting the caspase activation using our HeLa-C3 cells, the cell morphology changes was also examined after the treatment of the tested compounds.

SMILES: CC(C)=CC[C@H]1C[C@@]23CC4(CCC(C)(C)C[C@]4(C)O)OC2=C(OC(=O)c2ccc(O)c(O)c2)C(=O)[C@](CC=C(C)C)(C3=O)C1(C)C (relative stereo) [Compound 3, Paucinone C]
Apoptotic effect at 25 μM (HeLa-C3 cells [1]): − (“−” means the YFP/CFP emission ratio of compound treated HeLa-C3 cells was above 3 at 72 h.) | Apoptotic effect at 50 μM (HeLa-C3 cells [1]): + (“+” means the YFP/CFP emission ratio of compound treated HeLa-C3 cells was below 3 at 72 h.) | Apoptotic effect at 100 μM (HeLa-C3 cells [1]): + (“+” means the YFP/CFP emission ratio of compound treated HeLa-C3 cells was below 3 at 72 h.) | caspase-3 activation (HeLa-C3 cells [1]; within 72 h at 100 μM and 50 μM): could activate caspase-3 | IC50 (HeLa cells): 24.3 ± 0.6 µM | cell morphology (HeLa-C3 cells [2]; 50 μM, 24, 48 and 72 h): cell shrinkage

SMILES: CC(=O)O[C@H]1C(=O)[C@@]2(C)[C@H]([C@H](OC(=O)c3ccccc3)[C@]3(O)C[C@H](OC(=O)[C@H](O)[C@@H](NC(=O)c4ccccc4)c4ccccc4)C(C)=C1C3(C)C)[C@]1(OC(C)=O)CO[C@@H]1C[C@@H]2O [paclitaxel, reference compound]
cell morphology (HeLa-C3 cells [2]; 500 nM, positive control): typical cell shrinkage morphology

Now from value to compound, other results behind:

IC50 (HeLa cells): 10 ± 0.5 µM
SMILES: CC(C)=CC[C@H]1C[C@@]23CC4(CCC(C)(C)C[C@]4(C)O)OC2=C(C(=O)c2ccc(O)c(O)c2)C(=O)[C@](CC=C(C)C)(C3=O)C1(C)C (relative stereo) [Compound 1, Paucinone A]
Apoptotic effect at 25 μM (HeLa-C3 cells [1]): + (“+” means the YFP/CFP emission ratio of compound treated HeLa-C3 cells was below 3 at 72 h.) | Apoptotic effect at 50 μM (HeLa-C3 cells [1]): + (“+” means the YFP/CFP emission ratio of compound treated HeLa-C3 cells was below 3 at 72 h.) | Apoptotic effect at 100 μM (HeLa-C3 cells [1]): + (“+” means the YFP/CFP emission ratio of compound treated HeLa-C3 cells was below 3 at 72 h.) | HeLa cell growth inhibiting effect (HeLa cells): strong HeLa cell growth inhibiting effects | cell morphology (HeLa-C3 cells [2]; 25 μM, 24, 48 and 72 h): cell shrinkage

IC50 (HeLa cells): 8.2 ± 0.8 µM
SMILES: CC(C)=CC[C@H]1C[C@@]23CC4(CCC(C)(C)C[C@@]4(C)O)OC2=C(C(=O)c2ccc(O)c(O)c2)C(=O)[C@](CC=C(C)C)(C3=O)C1(C)C (relative stereo) [Compound 2, Paucinone B]
Apoptotic effect at 25 μM (HeLa-C3 cells [1]): + (“+” means the YFP/CFP emission ratio of compound treated HeLa-C3 cells was below 3 at 72 h.) | Apoptotic effect at 50 μM (HeLa-C3 cells [1]): + (“+” means the YFP/CFP emission ratio of compound treated HeLa-C3 cells was below 3 at 72 h.) | Apoptotic effect at 100 μM (HeLa-C3 cells [1]): + (“+” means the YFP/CFP emission ratio of compound treated HeLa-C3 cells was below 3 at 72 h.) | HeLa cell growth inhibiting effect (HeLa cells): strong HeLa cell growth inhibiting effects | cell morphology (HeLa-C3 cells [2]; 25 μM, 24, 48 and 72 h): cell shrinkage

IC50 (HeLa cells): 5.8 ± 0.6 µM
SMILES: C=C1CCCC(C)(C)[C@H]1C[C@H]1C[C@@]23CC(C(C)(C)O)OC2=C(C(=O)c2ccc(O)c(O)c2)C(=O)[C@](CC=C(C)C)(C3=O)C1(C)C (relative stereo) [Compound 4, Paucinone D]
Apoptotic effect at 25 μM (HeLa-C3 cells [1]): + (“+” means the YFP/CFP emission ratio of compound treated HeLa-C3 cells was below 3 at 72 h.) | Apoptotic effect at 50 μM (HeLa-C3 cells [1]): + (“+” means the YFP/CFP emission ratio of compound treated HeLa-C3 cells was below 3 at 72 h.) | Apoptotic effect at 100 μM (HeLa-C3 cells [1]): + (“+” means the YFP/CFP emission ratio of compound treated HeLa-C3 cells was below 3 at 72 h.) | HeLa cell growth inhibiting effect (HeLa cells): strong HeLa cell growth inhibiting effects | cell morphology (HeLa-C3 cells [2]; 25 μM, 24, 48 and 72 h): cell shrinkage

— patent US20110301233A1, “Novel Polyisoprenylated Benzophenone Derivatives from Garcinia paucinervis” (priority 2010, published 2011)
